The assay concerns the target T1, Human PD-L1/PD-1 (Homo sapiens, UniProt Q9NZQ7).
T1 construct: TVMV protease cleavage site (C); made in house; host or cells: HEK293T cells
The assay is described as follows: HTRF Human PD-L1/PD-1 binding assay (PD-1-Ig/PD-L1-His). Conditions: PD-L1-His 10 nM, PD-1-Ig 20 nM; class symbol; read-out: HTRF Human PD-L1/PD-1 Binding Assay IC50 Range. The method, boiled down:
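Competition of macrocyclic peptides for PD-1/PD-L1 binding measured by HTRF in dPBS containing 0.1% BSA and 0.05% Tween-20. Compound and PD-L1-His (10 nM final) incubated 15 min before PD-1-Ig (20 nM final) and a further 15 min.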

*1 amine or outer side, *2 acyl side, *3 side chain or, on linkers, in order; H or OH if unused. Where a SMILES comes first, the peptide text is derived from it. Bridges are numbered along the chain shown (N, C = ends). [ ]: non-standard residue; d: D form. ξ: configuration not given here. Trp(1-CH2COOH) = N[C@@H](Cc1cn(CC(=O)O)c2ccccc12)C(=O)O; Phe(3,4,5-F3) = N[C@@H](Cc1cc(F)c(F)c(F)c1)C(=O)O; NMePhe(4-F) = CN[C@@H](Cc1ccc(F)cc1)C(=O)O; d(cisHyp) = O=C(O)[C@H]1C[C@@H](O)CN1; Hyp = O=C(O)[C@@H]1C[C@@H](O)CN1; NMeF = CN[C@@H](Cc1ccccc1)C(=O)O; X1 = O=C([C@H]1COCCN1[*:1])[*:2]; NMeNle = CCCC[C@H](NC)C(=O)O; Pip = O=C(O)[C@@H]1CCCCN1; dPip = O=C(O)[C@H]1CCCCN1; NMeA = CN[C@@H](C)C(=O)O; Orn = NCCC[C@H](N)C(=O)O; Dab = NCC[C@H](N)C(=O)O; dAze = O=C(O)[C@H]1CCN1; Dap = NC[C@H](N)C(=O)O; ξC = NC(CS)C(=O)O; Sar = CNCC(=O)O

T1 sequence (Q9NZQ7 with tags, fused parts or gaps): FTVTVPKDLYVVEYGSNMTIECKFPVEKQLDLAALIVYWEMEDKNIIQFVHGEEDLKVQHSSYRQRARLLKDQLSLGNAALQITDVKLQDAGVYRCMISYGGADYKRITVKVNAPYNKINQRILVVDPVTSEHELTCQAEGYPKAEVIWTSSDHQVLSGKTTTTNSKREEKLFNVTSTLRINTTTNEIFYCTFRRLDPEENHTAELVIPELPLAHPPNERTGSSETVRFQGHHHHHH

Consider `CCCC[C@H]1C(=O)N2C[C@H](O)C[C@@H]2C(=O)N[C@@H](CC(=O)O)C(=O)N[C@@H](C(C)C)C(=O)N(C)[C@@H](Cc2ccccc2)C(=O)N[C@@H](CC(=O)O)C(=O)N2C[C@H](O)C[C@@H]2C(=O)N[C@@H](Cc2c[nH]c3ccccc23)C(=O)N[C@@H](Cc2ccc(O)cc2)C(=O)N[C@@H](CCCCN)C(=O)N[C@H](C(=O)NCC(N)=O)CSCC(=O)N[C@@H](Cc2cc(F)c(F)c(F)c2)C(=O)N(C)[C@@H](Cc2ccccc2)C(=O)N1C` [Example 9345] ({CH2CO}-[Phe(3,4,5-F3)][NMeF][NMeNle][d(cisHyp)]DV[NMeF]D[d(cisHyp)]WYKCG-NH2; thioether N-13), for which the IC50 fell in the range of 1 to 9.9 nM.

Take `CCCC[C@H]1C(=O)N2CC[C@@H]2C(=O)N[C@@H](CC(=O)O)C(=O)N[C@@H](C(C)C)C(=O)N(C)[C@@H](Cc2ccccc2)C(=O)N[C@@H](CCC(=O)O)C(=O)N2CCOC[C@@H]2C(=O)N[C@@H](Cc2c[nH]c3ccccc23)C(=O)N[C@@H](Cc2ccc(O)cc2)C(=O)N[C@@H](CCCN)C(=O)N[C@H](C(=O)NCC(N)=O)CSCC(=O)N[C@@H](Cc2cc(F)c(F)c(F)c2)C(=O)N(C)[C@@H](Cc2ccccc2)C(=O)N1C` [Example 3643] ({CH2CO}-[Phe(3,4,5-F3)][NMeF][NMeNle][dAze]DV[NMeF]E[X1]WY[Orn]CG-NH2; thioether N-13): the IC50 was in the range of 10 to 99.9 nM. Regarding `CCCC[C@H]1C(=O)N(C)[C@@H](CCCC)C(=O)N[C@@H](CC(C)C)C(=O)N[C@H](C(=O)NCC(N)=O)CSCC(=O)N[C@@H](Cc2ccc(O)cc2)C(=O)N(C)[C@@H](C)C(=O)N[C@@H](CC(N)=O)C(=O)N2CCC[C@H]2C(=O)N[C@@H](CN)C(=O)N[C@@H](CC(C)C)C(=O)N2CCC[C@H]2C(=O)N[C@@H](Cc2c[nH]c3ccccc23)C(=O)N[C@@H](CCN)C(=O)N[C@@H](Cc2ccc(O)cc2)C(=O)N1C` [Example 6272] ({CH2CO}-Y[NMeA]NP[Dap]LPW[Dab]Y[NMeNle][NMeNle]LCG-NH2; thioether N-14), the IC50 was 1 to 9.9 nM. On to `CCCC[C@H]1C(=O)N(C)[C@@H](CCCC)C(=O)N[C@@H](CCC(=O)O)C(=O)N[C@H](C(=O)NCC(N)=O)CSCC(=O)N[C@@H](Cc2ccc(O)cc2)C(=O)N(C)[C@@H](C)C(=O)N[C@@H](CC(N)=O)C(=O)N2CCC[C@H]2C(=O)N[C@@H](CO)C(=O)N[C@@H](CC(C)C)C(=O)N2C[C@H](O)C[C@H]2C(=O)N[C@@H](Cc2c[nH]c3ccccc23)C(=O)N[C@@H](CCC(=O)O)C(=O)N[C@@H](Cc2c[nH]c3ccccc23)C(=O)N1C` [Example 5216] ({CH2CO}-Y[NMeA]NPSL[Hyp]WEW[NMeNle][NMeNle]ECG-NH2; thioether N-14), for which the IC50 was 1 to 9.9 nM. As for `CCCC[C@H]1C(=O)N2C[C@H](O)C[C@@H]2C(=O)N[C@@H](CC(=O)O)C(=O)N[C@@H](C(C)C)C(=O)N(C)[C@@H](Cc2ccccc2)C(=O)N[C@@H](CCC(=O)O)C(=O)N2C[C@H](O)C[C@@H]2C(=O)N[C@@H](Cc2c[nH]c3ccccc23)C(=O)N[C@@H](Cc2ccc(O)cc2)C(=O)N[C@@H](CC(N)=O)C(=O)N[C@H](C(=O)NCC(N)=O)CSCC(=O)N[C@@H](Cc2cc(F)c(F)c(F)c2)C(=O)N(C)[C@@H](Cc2ccccc2)C(=O)N1C` [Example 9338] ({CH2CO}-[Phe(3,4,5-F3)][NMeF][NMeNle][d(cisHyp)]DV[NMeF]E[d(cisHyp)]WYNCG-NH2; thioether N-13), the IC50 is 1 to 9.9 nM. Regarding `CCCC[C@H]1C(=O)N(C)[C@@H](CCCC)C(=O)N[C@@H](C)C(=O)N[C@H](C(=O)NCC(N)=O)CSCC(=O)N[C@@H](Cc2ccc(O)cc2)C(=O)N(C)[C@@H](C)C(=O)N[C@@H](CC(N)=O)C(=O)N2CCC[C@H]2C(=O)N[C@@H](Cc2cnc[nH]2)C(=O)N[C@@H](CCN)C(=O)N2C[C@H](O)C[C@H]2C(=O)N[C@@H](Cc2c[nH]c3ccccc23)C(=O)N[C@@H](CO)C(=O)N[C@@H](Cc2c[nH]c3ccccc23)C(=O)N1C` [Example 1245], the IC50 lay within 10 to 99.9 nM. As for `CCCC[C@H]1C(=O)N(C)[C@@H](CCCC)C(=O)N[C@@H](CCCN)C(=O)N[C@H](C(=O)NCC(N)=O)CSCC(=O)N[C@@H](Cc2ccc(OC)cc2)C(=O)N(C)[C@@H](C)C(=O)N[C@@H](CCN)C(=O)N2CCC[C@H]2C(=O)N[C@@H](CN)C(=O)N[C@@H](CCC(=O)O)C(=O)N2C[C@H](O)C[C@H]2C(=O)N[C@@H](Cc2c[nH]c3ccccc23)C(=O)N[C@@H](CC(=O)O)C(=O)N[C@@H](Cc2c[nH]c3ccccc23)C(=O)N1C` [Example 7105] ({CH2CO}-Y(Me)[NMeA][Dab]P[Dap]E[Hyp]WDW[NMeNle][NMeNle][Orn]CG-NH2; thioether N-14), the figure is 10 to 99.9 nM; as for `CCCC[C@H]1C(=O)N2CCC[C@@H]2C(=O)N[C@@H](CC(=O)O)C(=O)N[C@@H](C(C)C)C(=O)N(C)[C@@H](Cc2ccccc2)C(=O)N[C@@H](Cc2ccc(O)cc2)C(=O)N2CCC[C@@H]2C(=O)N[C@@H](Cc2c[nH]c3ccccc23)C(=O)N[C@@H](Cc2ccc(O)cc2)C(=O)N[C@@H](CCC(=O)O)C(=O)N[C@H](C(=O)NCC(N)=O)CSCC(=O)N[C@@H](Cc2cc(F)c(F)c(F)c2)C(=O)N(C)[C@@H](Cc2ccccc2)C(=O)N1C` [Example 10097] ({CH2CO}-[Phe(3,4,5-F3)][NMeF][NMeNle][dP]DV[NMeF]Y[dP]WYECG-NH2; thioether N-13), 1 to 9.9 nM. On to `CCCC[C@H]1C(=O)N2CCC[C@@H]2C(=O)N[C@@H](CC(=O)O)C(=O)N[C@@H](C(C)C)C(=O)N(C)[C@@H](Cc2ccccc2)C(=O)N[C@@H](CCC(=O)O)C(=O)N2CCCC[C@@H]2C(=O)N[C@@H](Cc2c[nH]c3ccccc23)C(=O)N[C@@H](Cc2ccc(O)cc2)C(=O)N[C@@H](CC(C)C)C(=O)N[C@H](C(=O)NCC(N)=O)CSCC(=O)N[C@@H](Cc2cc(F)c(F)c(F)c2)C(=O)N(C)[C@@H](Cc2ccc(F)cc2)C(=O)N1C` [Example 10561] ({CH2CO}-[Phe(3,4,5-F3)][NMePhe(4-F)][NMeNle][dP]DV[NMeF]E[dPip]WYLCG-NH2; thioether N-13), for which the IC50 was 1 to 9.9 nM. Turning to `CCCC[C@H]1C(=O)N(C)[C@@H](CCCC)C(=O)N[C@@H](CC(C)C)C(=O)NC(C(=O)NCC(N)=O)CSCC(=O)N[C@@H](Cc2ccc(O)cc2)C(=O)N(C)[C@@H](C)C(=O)N[C@@H](CC(N)=O)C(=O)N2CCC[C@H]2C(=O)N[C@@H](CC(N)=O)C(=O)N[C@@H](CC(C)C)C(=O)N2CCC[C@H]2C(=O)N[C@@H](Cc2c[nH]c3ccccc23)C(=O)N[C@@H](CO)C(=O)N[C@@H](Cc2c[nH]c3ccccc23)C(=O)N1C` (stereo partly drawn) [Example 9159] ({CH2CO}-Y[NMeA]NPNLPWSW[NMeNle][NMeNle]L[ξC]G-NH2; thioether N-14), the IC50 lay in the range of 1 to 9.9 nM.

Regarding `CCCC[C@H]1C(=O)N(C)CC(=O)N[C@@H](CO)C(=O)N[C@@H](C(C)C)C(=O)N(C)[C@@H](Cc2ccccc2)C(=O)N[C@@H](Cc2ccc(O)cc2)C(=O)N2CCCC[C@@H]2C(=O)N[C@@H](Cc2c[nH]c3ccccc23)C(=O)N[C@@H](Cc2ccc(O)cc2)C(=O)N[C@@H](CC(C)C)C(=O)N[C@H](C(=O)NCC(N)=O)CSCC(=O)N[C@@H](Cc2ccccc2)C(=O)N(C)[C@@H](Cc2ccccc2)C(=O)N1C` [Example 10065] ({CH2CO}-F[NMeF][NMeNle][Sar]SV[NMeF]Y[dPip]WYLCG-NH2; thioether N-13), the IC50 fell in the range of 10 to 99.9 nM. With `CCCC[C@H]1C(=O)N(C)[C@@H](CCCC)C(=O)N[C@@H](CCC(=O)O)C(=O)N[C@H](C(=O)NCC(N)=O)CSCC(=O)N[C@@H](Cc2ccc(O)cc2)C(=O)N2CCCC[C@H]2C(=O)N[C@@H](CC(N)=O)C(=O)N2CCC[C@H]2C(=O)N[C@@H](CN)C(=O)N[C@@H](CCC(=O)O)C(=O)N2C[C@H](O)C[C@H]2C(=O)N[C@@H](Cc2c[nH]c3ccccc23)C(=O)N[C@@H](CCN)C(=O)N[C@@H](Cc2c[nH]c3ccccc23)C(=O)N1C` [Example 1526] ({CH2CO}-Y[Pip]NP[Dap]E[Hyp]W[Dab]W[NMeNle][NMeNle]ECG-NH2; thioether N-14), the IC50 lay in the range of 1 to 9.9 nM.

Consider `CCCC[C@H]1C(=O)N(C)[C@@H](CCCC)C(=O)N[C@@H](CC(C)C)C(=O)N[C@H](C(=O)NCC(N)=O)CSCC(=O)N[C@@H](Cc2ccc(O)cc2)C(=O)N(C)[C@@H](C)C(=O)N[C@@H](CC(N)=O)C(=O)N2CCC[C@H]2C(=O)N[C@@H](Cc2cnc[nH]2)C(=O)N[C@@H](CCC(N)=O)C(=O)N2C[C@H](O)C[C@H]2C(=O)N[C@@H](Cc2c[nH]c3ccccc23)C(=O)N[C@@H](CCN)C(=O)N[C@@H](Cc2cn(CC(=O)O)c3ccccc23)C(=O)N1C` [Example 5241] ({CH2CO}-Y[NMeA]NPHQ[Hyp]W[Dab][Trp(1-CH2COOH)][NMeNle][NMeNle]LCG-NH2; thioether N-14), for which the IC50 was 10 to 99.9 nM.

As to `CCCC[C@H]1C(=O)N(C)[C@@H](CCCC)C(=O)N[C@@H](CCCNC(=N)N)C(=O)N[C@H](C(=O)NCC(N)=O)CSCC(=O)N[C@@H](Cc2ccc(O)cc2)C(=O)N(C)[C@@H](C)C(=O)N[C@@H](CC(N)=O)C(=O)N2CCC[C@H]2C(=O)N[C@@H](Cc2cnc[nH]2)C(=O)N[C@@H](CCCCN)C(=O)N2C[C@H](O)C[C@H]2C(=O)N[C@@H](Cc2c[nH]c3ccccc23)C(=O)N[C@@H](CO)C(=O)N[C@@H](Cc2cn(CC(=O)O)c3ccccc23)C(=O)N1C` [Example 6338] ({CH2CO}-Y[NMeA]NPHK[Hyp]WS[Trp(1-CH2COOH)][NMeNle][NMeNle]RCG-NH2; thioether N-14), the IC50 was in the range of 10 to 99.9 nM. For `CCCC[C@H]1C(=O)N2C[C@H](O)C[C@@H]2C(=O)N[C@@H](CC(=O)O)C(=O)N[C@@H](C(C)C)C(=O)N(C)[C@@H](Cc2ccccc2)C(=O)N[C@@H](CC(N)=O)C(=O)N2C[C@H](O)C[C@@H]2C(=O)N[C@@H](Cc2c[nH]c3ccccc23)C(=O)N[C@@H](Cc2ccc(O)cc2)C(=O)N[C@@H](CCCCN)C(=O)N[C@H](C(=O)NCC(N)=O)CSCC(=O)N[C@@H](Cc2cc(F)c(F)c(F)c2)C(=O)N(C)[C@@H](Cc2ccccc2)C(=O)N1C` [Example 9362] ({CH2CO}-[Phe(3,4,5-F3)][NMeF][NMeNle][d(cisHyp)]DV[NMeF]N[d(cisHyp)]WYKCG-NH2; thioether N-13), the IC50 was in the range of 1 to 9.9 nM.

The values above are taken from patent US10538555B2, “Macrocyclic inhibitors of the PD-1/PD-L1 and CD80(B7-1)/PD-L1 protein/protein interactions” (BRISTOL-MYERS SQUIBB COMPANY, priority 2014, dated 2020).
